Test results: the supplement of paper PMC10307832

Assays:
Assay in all cases: relative viability (nuclei count vs DMSO), 5 days (fraction); higher = more cells survive
201T = test system: 201T
Procedure, shortened: (§1)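 A single step with final 0.05% Triton X-100, 1% formaldehyde and 1 ug/ml Hoechst fixed the cells and stained nuclei 5 days after treatment. Lung cancer cell lines in 1536-well plates had been treated by pin tool the day after seeding with one drug alone or a fixed anchor-drug dose plus five library-drug doses (not always all listed) in √10 steps, and nuclei were counted on 4× images. Relative viability is the ratio of nuclei in treated wells to nuclei in vehicle wells, taken as the median of duplicate plates.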

COR-L 105 = test system: COR-L 105
Procedure, shortened: as §1

ChaGo-K-1 = test system: ChaGo-K-1
Procedure, shortened: as §1

EPLC-272H = test system: EPLC-272H
Procedure, shortened: as §1

H3255 = test system: H3255
Procedure, shortened: as §1

HCC-78 = test system: HCC-78
Procedure, shortened: as §1

HCC-827 = test system: HCC-827
Procedure, shortened: as §1

LC-2-ad = test system: LC-2-ad
Procedure, shortened: as §1

LCLC-97TM1 = test system: LCLC-97TM1
Procedure, shortened: as §1

NCI-H1666 = test system: NCI-H1666
Procedure, shortened: as §1

NCI-H1915 = test system: NCI-H1915
Procedure, shortened: as §1

NCI-H2087 = test system: NCI-H2087
Procedure, shortened: as §1

NCI-H2126 = test system: NCI-H2126
Procedure, shortened: as §1

NCI-H2347 = test system: NCI-H2347
Procedure, shortened: as §1

NCI-H23 = test system: NCI-H23
Procedure, shortened: as §1

NCI-H2405 = test system: NCI-H2405
Procedure, shortened: as §1

NCI-H322M = test system: NCI-H322M
Procedure, shortened: as §1

NCI-H520 = test system: NCI-H520
Procedure, shortened: as §1

NCI-H647 = test system: NCI-H647
Procedure, shortened: as §1

NCI-H650 = test system: NCI-H650
Procedure, shortened: as §1

NCI-H661 = test system: NCI-H661
Procedure, shortened: as §1

PC-14 = test system: PC-14
Procedure, shortened: as §1

RERF-LC-KJ = test system: RERF-LC-KJ
Procedure, shortened: as §1

SMILES: C[C@@H]1CN(CC(=O)Nc2ccc3c(c2)Cc2cccc(-c4cc(=O)cc(N5CCOCC5)o4)c2S3)C[C@H](C)O1 + C[C@@H](Oc1cc(-c2cnn(C3CCNCC3)c2)cnc1N)c1c(Cl)ccc(F)c1Cl [Crizotinib] (partner 1 µM)
- relative viability (201T; first compound 0.04 µM): 1.05
- relative viability (201T; first compound 0.1265 µM): 0.98
- relative viability (201T; first compound 0.4 µM): 1.04
- relative viability (201T; first compound 4 µM): 0.971
- relative viability (COR-L 105; first compound 0.04 µM): 0.766
- relative viability (COR-L 105; first compound 0.1265 µM): 0.862
- relative viability (COR-L 105; first compound 0.4 µM): 0.881
- relative viability (COR-L 105; first compound 4 µM): 0.435
- relative viability (ChaGo-K-1; first compound 0.1265 µM): 1.09
- relative viability (ChaGo-K-1; first compound 0.4 µM): 1.21
- relative viability (ChaGo-K-1; first compound 4 µM): 1.13
- relative viability (EPLC-272H; first compound 0.04 µM): 1.27
- relative viability (EPLC-272H; first compound 0.1265 µM): 0.971
- relative viability (EPLC-272H; first compound 0.4 µM): 0.997
- relative viability (EPLC-272H; first compound 4 µM): 0.83
- relative viability (H3255; first compound 0.04 µM): 0.824
- relative viability (H3255; first compound 0.1265 µM): 0.785
- relative viability (H3255; first compound 0.4 µM): 0.814
- relative viability (H3255; first compound 4 µM): 0.719
- relative viability (HCC-78; first compound 0.04 µM): 0.344
- relative viability (HCC-78; first compound 0.1265 µM): 0.349
- relative viability (HCC-78; first compound 0.4 µM): 0.308
- relative viability (HCC-78; first compound 4 µM): 0.348
- relative viability (HCC-827; first compound 0.04 µM): 1
- relative viability (HCC-827; first compound 0.1265 µM): 0.817
- relative viability (HCC-827; first compound 0.4 µM): 0.929
- relative viability (HCC-827; first compound 4 µM): 0.983
- relative viability (LC-2-ad; first compound 0.04 µM): 0.386
- relative viability (LC-2-ad; first compound 0.1265 µM): 0.455
- relative viability (LC-2-ad; first compound 0.4 µM): 0.434
- relative viability (LC-2-ad; first compound 4 µM): 0.43
- relative viability (LCLC-97TM1; first compound 0.1265 µM): 0.396
- relative viability (LCLC-97TM1; first compound 0.4 µM): 0.287
- relative viability (LCLC-97TM1; first compound 4 µM): 0.337
- relative viability (NCI-H1666; first compound 0.04 µM): 0.928
- relative viability (NCI-H1666; first compound 0.1265 µM): 1.05
- relative viability (NCI-H1666; first compound 0.4 µM): 1.11
- relative viability (NCI-H1666; first compound 4 µM): 0.661
- relative viability (NCI-H1915; first compound 0.04 µM): 0.9
- relative viability (NCI-H1915; first compound 0.1265 µM): 0.886
- relative viability (NCI-H1915; first compound 0.4 µM): 0.95
- relative viability (NCI-H1915; first compound 4 µM): 0.853
- relative viability (NCI-H2087; first compound 0.04 µM): 0.936
- relative viability (NCI-H2087; first compound 0.1265 µM): 0.929
- relative viability (NCI-H2087; first compound 0.4 µM): 0.895
- relative viability (NCI-H2087; first compound 4 µM): 0.748
- relative viability (NCI-H2126; first compound 0.04 µM): 1.05
- relative viability (NCI-H2126; first compound 0.1265 µM): 1.02
- relative viability (NCI-H2126; first compound 0.4 µM): 1.05
- relative viability (NCI-H2126; first compound 4 µM): 1.02
- relative viability (NCI-H2347; first compound 0.04 µM): 0.784
- relative viability (NCI-H2347; first compound 0.1265 µM): 0.754
- relative viability (NCI-H2347; first compound 0.4 µM): 0.735
- relative viability (NCI-H2347; first compound 4 µM): 0.578
- relative viability (NCI-H23; first compound 0.04 µM): 0.521
- relative viability (NCI-H23; first compound 0.1265 µM): 0.487
- relative viability (NCI-H23; first compound 0.4 µM): 0.369
- relative viability (NCI-H23; first compound 4 µM): 0.487
- relative viability (NCI-H2405; first compound 0.04 µM): 0.754
- relative viability (NCI-H2405; first compound 0.1265 µM): 0.855
- relative viability (NCI-H2405; first compound 0.4 µM): 0.893
- relative viability (NCI-H2405; first compound 4 µM): 0.8
- relative viability (NCI-H322M; first compound 0.04 µM): 0.599
- relative viability (NCI-H322M; first compound 0.1265 µM): 0.863
- relative viability (NCI-H322M; first compound 0.4 µM): 1.08
- relative viability (NCI-H322M; first compound 4 µM): 0.959
- relative viability (NCI-H520; first compound 0.04 µM): 0.64
- relative viability (NCI-H520; first compound 0.1265 µM): 0.711
- relative viability (NCI-H520; first compound 0.4 µM): 0.497
- relative viability (NCI-H520; first compound 4 µM): 0.534
- relative viability (NCI-H647; first compound 0.04 µM): 1.04
- relative viability (NCI-H647; first compound 0.1265 µM): 1.09
- relative viability (NCI-H647; first compound 0.4 µM): 1.09
- relative viability (NCI-H647; first compound 4 µM): 0.592
- relative viability (NCI-H650; first compound 0.04 µM): 0.433
- relative viability (NCI-H650; first compound 0.1265 µM): 0.753
- relative viability (NCI-H650; first compound 0.4 µM): 0.727
- relative viability (NCI-H650; first compound 4 µM): 0.602
- relative viability (NCI-H661; first compound 0.04 µM): 1.07
- relative viability (NCI-H661; first compound 0.1265 µM): 1.01
- relative viability (NCI-H661; first compound 0.4 µM): 1.02
- relative viability (NCI-H661; first compound 4 µM): 0.885
- relative viability (PC-14; first compound 0.04 µM): 0.976
- relative viability (PC-14; first compound 0.1265 µM): 0.982
- relative viability (PC-14; first compound 0.4 µM): 0.859
- relative viability (PC-14; first compound 4 µM): 0.706
- relative viability (RERF-LC-KJ; first compound 0.04 µM): 0.861
- relative viability (RERF-LC-KJ; first compound 0.1265 µM): 0.779
- relative viability (RERF-LC-KJ; first compound 0.4 µM): 0.909
- relative viability (RERF-LC-KJ; first compound 4 µM): 0.722

SMILES: CC(C)Oc1cc(Nc2nc(N[C@@H](C)c3ccc(F)cn3)ncc2Cl)n[nH]1 [AZ23] + CC(C)C[C@H](NC(=O)[C@H](Cc1ccccc1)NC(=O)c1cnccn1)B(O)O [Bortezomib] (partner 0.002 µM)
- relative viability (201T; first compound 0.01 µM): 1.18
- relative viability (201T; first compound 0.03162 µM): 1.07
- relative viability (201T; first compound 0.3162 µM): 1.13
- relative viability (COR-L 105; first compound 0.01 µM): 0.733
- relative viability (COR-L 105; first compound 0.03162 µM): 1.04
- relative viability (COR-L 105; first compound 0.3162 µM): 0.757
- relative viability (ChaGo-K-1; first compound 0.01 µM): 0.96
- relative viability (ChaGo-K-1; first compound 0.03162 µM): 1.22
- relative viability (ChaGo-K-1; first compound 0.3162 µM): 1.16
- relative viability (EPLC-272H; first compound 0.01 µM): 0.942
- relative viability (EPLC-272H; first compound 0.03162 µM): 1.02
- relative viability (H3255; first compound 0.01 µM): 0.64
- relative viability (H3255; first compound 0.03162 µM): 1.06
- relative viability (H3255; first compound 0.3162 µM): 0.81
- relative viability (HCC-78; first compound 0.01 µM): 0.395
- relative viability (HCC-78; first compound 0.03162 µM): 0.507
- relative viability (HCC-78; first compound 0.3162 µM): 0.335
- relative viability (HCC-827; first compound 0.01 µM): 1.16
- relative viability (HCC-827; first compound 0.03162 µM): 1.06
- relative viability (HCC-827; first compound 0.3162 µM): 1.08
- relative viability (LC-2-ad; first compound 0.01 µM): 1.16
- relative viability (LC-2-ad; first compound 0.03162 µM): 1.2
- relative viability (LC-2-ad; first compound 0.3162 µM): 1.01
- relative viability (LCLC-97TM1; first compound 0.01 µM): 0.277
- relative viability (LCLC-97TM1; first compound 0.03162 µM): 1
- relative viability (LCLC-97TM1; first compound 0.3162 µM): 0.755
- relative viability (NCI-H1666; first compound 0.01 µM): 0.725
- relative viability (NCI-H1666; first compound 0.03162 µM): 0.878
- relative viability (NCI-H1666; first compound 0.3162 µM): 0.889
- relative viability (NCI-H1915; first compound 0.01 µM): 1.26
- relative viability (NCI-H1915; first compound 0.03162 µM): 1.09
- relative viability (NCI-H1915; first compound 0.3162 µM): 1.05
- relative viability (NCI-H2087; first compound 0.01 µM): 1.3
- relative viability (NCI-H2087; first compound 0.03162 µM): 0.962
- relative viability (NCI-H2087; first compound 0.3162 µM): 0.778
- relative viability (NCI-H2126; first compound 0.01 µM): 1.18
- relative viability (NCI-H2126; first compound 0.03162 µM): 1.18
- relative viability (NCI-H2126; first compound 0.3162 µM): 1.09
- relative viability (NCI-H2347; first compound 0.01 µM): 0.927
- relative viability (NCI-H2347; first compound 0.03162 µM): 1.04
- relative viability (NCI-H2347; first compound 0.3162 µM): 0.979
- relative viability (NCI-H23; first compound 0.03162 µM): 1.12
- relative viability (NCI-H23; first compound 0.3162 µM): 1.04
- relative viability (NCI-H2405; first compound 0.01 µM): 0.963
- relative viability (NCI-H2405; first compound 0.03162 µM): 1.02
- relative viability (NCI-H2405; first compound 0.3162 µM): 0.948
- relative viability (NCI-H322M; first compound 0.01 µM): 1.2
- relative viability (NCI-H322M; first compound 0.03162 µM): 1.32
- relative viability (NCI-H322M; first compound 0.3162 µM): 1.19
- relative viability (NCI-H520; first compound 0.01 µM): 0.434
- relative viability (NCI-H520; first compound 0.03162 µM): 0.591
- relative viability (NCI-H520; first compound 0.3162 µM): 0.495
- relative viability (NCI-H647; first compound 0.01 µM): 1.41
- relative viability (NCI-H647; first compound 0.03162 µM): 1.16
- relative viability (NCI-H647; first compound 0.3162 µM): 1.12
- relative viability (NCI-H650; first compound 0.01 µM): 0.71
- relative viability (NCI-H650; first compound 0.03162 µM): 0.946
- relative viability (NCI-H650; first compound 0.3162 µM): 0.84
- relative viability (NCI-H661; first compound 0.01 µM): 0.828
- relative viability (NCI-H661; first compound 0.03162 µM): 0.845
- relative viability (NCI-H661; first compound 0.3162 µM): 0.773
- relative viability (PC-14; first compound 0.01 µM): 0.774
- relative viability (PC-14; first compound 0.03162 µM): 1.04
- relative viability (PC-14; first compound 0.3162 µM): 0.917
- relative viability (RERF-LC-KJ; first compound 0.01 µM): 1.23
- relative viability (RERF-LC-KJ; first compound 0.03162 µM): 1.31
- relative viability (RERF-LC-KJ; first compound 0.3162 µM): 1.17
